Reference: PMC7026080, “Phenotypic high-throughput screening platform identifies novel chemotypes for necroptosis inhibition” (Cell Death Discovery, 2020)
pEC50, pIC50: −log10 of the molar value.

How the values were obtained:
L929 cells [1] = test: Long-term necroptosis inhibition in L929 cells + mTNF-α, 24 h, LDH release; format: cell-based, murine; conditions: Mus musculus, 10 ng/mL mTNF-α, screening step 7, read-out: EC50 L929 + TNF-α (in vitro)
Protocol: (§1) The ability of compounds to interfere with specific steps of the necroptosis pathway, as well as inherent cytotoxicity and long-term necroptosis inhibitory effects were evaluated using in vitro necroptosis models (Fig. S1). Firstly, the 110 compounds were tested for their ability to modulate TNF-α-induced MLKL phosphorylation, a key necroptotic effector downstream of RIPK3[13]. […] Membrane integrity was evaluated by both AK and LDH release to exclude potential false positives.
(§2) Whole cell extracts were analysed by immunoblotting. […] Data represent mean values ± SEM of three independent experiments normalized to untreated control. Cell viability was assessed using a colorimetric-based readout for LDH release.
(§3) Whole cell extracts were analysed by immunoblotting. Data shown are representative blots and quantification of p-MLKL/MLKL ratio from one single experiment, in fold-change from control. […] Data represent mean values ± SEM of three independent experiments normalized to untreated control. Cell viability was assessed using a colorimetric-based readout for LDH release. c In vitro screening results for seven selected compounds at different stages of the HTS cascade. TEXT PRINTED IN THE PICTURE: (C) Nec-1: EC50 [μM] L929 + TNF-α (in vitro): 1.25 (Screening Step: 1; Time Point: 8 h); EC50 [μM] L929 + TNF-α (in vitro): 1.13 (Screening Step: 7; Time Point: 24 h); EC50 [μM] […]

L929 cells [2] = test: Cytotoxicity in L929 cells without TNF-α, 24 h, LDH release; format: cell-based, murine; conditions: Mus musculus, absence of TNF-α, toxicity, screening step 7, read-out: IC50 L929 (in vitro)
Protocol: as §1, §2, §3

[3] = MDCK-MDR1 cell-based permeability assay; format: in vitro ADME; conditions: dog
[4] = Human microsomal clearance (in vitro); format: in vitro ADME; conditions: microsomes, read-out: Human microsomal clearance (in vitro) rate

In the case of `O=C(c1cnn(Cc2ccccc2)c1)N1CCOc2ccccc2C1` [SN-6109], the pEC50 (L929 cells [1]) was 4.94, the pIC50 (L929 cells [2]) was less than 4.00 and the Papp A→B [3] was 35 ×10⁻⁶ cm/s. It also gave a Papp B→A [3] of 18 ×10⁻⁶ cm/s and a microsomal CLint [4] of 42 µL/min/mg.

In the case of `CN1C(=O)C(Cc2c[nH]c3ccccc23)NC1=S` (stereo not shown) [Nec-1, necrostatin-1], the pEC50 (L929 cells [1]) was 5.95, the pIC50 (L929 cells [2]) was less than 4.00 and the Papp A→B [3] was 31 ×10⁻⁶ cm/s. It also gave a Papp B→A [3] of 34 ×10⁻⁶ cm/s and a microsomal CLint [4] of 59 µL/min/mg.
